Assay results from patent publication EP4781993A1, “ANTIBACTERIAL COMPOSITION AND ANTIBACTERIAL DRUG” (Shenzhen China Resources Gosun Pharmaceuticals Co., Ltd., priority 2023, dated 2025).
Read-outs that look alike come from different tables or passages of the source.

How the values were obtained:
[1] = test system: KPC-2 producing Klebsiella pneumoniae; assay: Broth-microdilution MIC (CLSI M07-A11) against clinical isolates; format: cell-based; design: Drug concentration: unit: mg/L; details: for MIC range / MIC50 / MIC90 / Mode: 12 strains; for MIC range / MIC50 / MIC90: MIC = ceftobiprole concentration (groups A2, B2, C2, D2, E2: inhibitor alone); for Cumulative inhibition rate (%) / Cumulative number of strains / Number of strains: MIC >128 mg/L; for Mode: mode of MIC; for Drug concentration: unit not given in Table 3; for antibacterial activity: verdict in words
Description: (§1) As recommended by CLSI (Clinical and Laboratory Standards Institute) M07-A11 (2018 edition), the Broth-microdilution method is adopted to determine the minimum inhibitory concentration (MIC) of ceftobiprole and zidebactam against clinical isolates. It should be noted that, in the present disclosure, MIC50 refers to the minimum drug concentration that inhibits the growth of 50% of the tested bacteria, and MIC90 refers to the minimum drug concentration that inhibits the growth of 90% of the tested bacteria.
(§2) Antibacterial drug: ceftobiprole, manufacturer: Shenyang Sanjiu Pharmaceutical, content: 92.1%, batch number: YF/BALP141/000. Zidebactam, manufacturer: Target M01 company, batch number: 149661. Zidebactam, as described above, the English name is Zidebactam, and the chemical name is: (2S,5R)-7-oxo-2-(2-((R)-piperidine-3-carbonyl)hydrazine-1-carbonyl)-1,6-diazabicyclo[3.2.1]octan-6-yl hydrogen sulfate.
(§3) Tested strains: a total of 24 genotypic strains producing KPC or OXA β-lactamase. Specifically, the tested strains include 24 strains of Klebsiella pneumoniae, including 12 KPC-2 producing strains and 12 OXA-232 producing strains.
(§4) Quality control strains: Escherichia coli ATCC 25922, (KPC-2 producing) Klebsiella pneumoniae ATCC BAA-1705, and (NDM-1 producing) Klebsiella pneumoniae ATCC BAA-2146.
(§5) Medium: cation-adjusted Mueller-Hinton broth (CAMHB), a product of BBL Company, USA.
(§6) Inoculum size: Pure isolated colonies were adjusted with normal saline to 0.5 McFarland turbidity. After appropriate dilution, the suspension was added to the wells of a 96-well U-bottom microplate (containing 50 µL antibacterial drug solution). The inoculum size was 5 × 10^5 CFU/mL.
(§7) Culture conditions: air environment, 35°C ± 2°C, 16 to 20 hours.
(§8) Preparation of Antibacterial Drug Solution : Ceftobiprole and zidebactam were taken separately, dissolution and dilution were performed according to the antibacterial drug reference to the CLSI standards and the drug package insert, A1 to A6, a total of 6 groups of antibacterial drug solutions, were prepared, among which, group A1 was the control group containing solely the single agent ceftobiprole, and group A2 was the control group containing solely the single agent zidebactam. Different antibacterial drug solutions with ceftobiprole concentrations ranging from 128 mg/L to 0.06 mg/L were respectively included in groups A1 and A3 to A6, and different antibacterial drug solutions with zidebactam concentrations ranging from 128 mg/L to 0.06 mg/L were included in group A2. The specific concentrations within the range of 128 mg/L to 0.06 mg/L in groups A1 to A6 were respectively 128 mg/L, 64 mg/L, 32 mg/L, 16 mg/L, 8 mg/L, 4 mg/L, 2 mg/L, 1 mg/L, 0.5 mg/L, 0.25 mg/L, 0.125 mg/L, or 0.06 mg/L, respectively. Table 1. Concentrations of ceftobiprole/zidebactam contained in the antibacterial drug solutions of groups A1 to A6
(§9) Experimental results: Currently, there are no established CLSI or EUCAST breakpoints for ceftobiprole/β-lactamase inhibitor. Therefore, the antibacterial activity of ceftobiprole/β-lactamase inhibitor is evaluated in accordance with the standards for ceftobiprole. WHONET 5.6 software is used to perform statistical analysis on the results of antibacterial susceptibility test. The fractional inhibitory concentration index (FIC) for the combination of ceftobiprole and zidebactam is calculated according to Equation (1). FIC index = (MIC of drug A in combination)/(MIC of drug A alone) + (MIC of drug B in combination)/(MIC of drug B alone) [formula]
(§10) In Equation (1), drug A is ceftobiprole, and drug B is zidebactam. […] Table 2. In vitro antibacterial activity of ceftobiprole/zidebactam against the tested bacteria in Example 1 […]

[2] = test system: OXA-232 producing Klebsiella pneumoniae; assay: as above; format: cell-based; design: Drug concentration: unit: mg/L; details: for MIC range / MIC50 / MIC90 / Mode: 12 strains; for MIC range / MIC50 / MIC90: MIC = ceftobiprole concentration (groups A2, B2, C2, D2, E2: inhibitor alone); for MIC50 / MIC90: Klebsiella pneumoniae; for Cumulative inhibition rate (%) / Cumulative number of strains / Number of strains: MIC >128 mg/L; for Mode: mode of MIC; for Drug concentration: unit not given in Table 3; for antibacterial activity: verdict in words
Description: as §1, §2, §3, §4, §5, §6, §7, §8, §9, §10

[3] = Klebsiella pneumoniae, read-out: MIC50
[4] = Klebsiella pneumoniae, read-out: MIC90

Nc1nc(/C(=N/O)C(=O)N[C@@H]2C(=O)N3C(C(=O)O)=C(/C=C4\CCN([C@@H]5CCNC5)C4=O)CS[C@H]23)ns1 [Group A1, (6R,7R)-7-((Z)-2-(5-amino-1,2,4-thiadiazol-3-yl)-2-(hydroxyimino)acetamido)-8-oxo-3-((E)-((R)-2-oxo-[1,3'-bipyrrolidin]-3-ylidene)methyl)-5-thia-1-azabicyclo[4.2.0]oct-2-ene-2-carboxylic acid]
MIC range [1]: >128 mg/L | MIC50 ([1]; listed as Group Al): >128 µg/mL | MIC90 ([1]; listed as Group Al): >128 µg/mL | MIC50 [1, 3]: ≥ 128 µg/mL | MIC90 [1, 4]: ≥ 128 µg/mL | Cumulative inhibition rate (%) [1]: 100% | Cumulative number of strains [1]: 12 | Number of strains [1]: 12 | Mode [1]: >128 mg/L | Drug concentration ([1]; strain 18-W09-043 (kpn, KPC-2)): >128 | Drug concentration ([1]; strain 18-W09-045 (kpn, KPC-2)): >128 | Drug concentration ([1]; strain 18-W09-046 (kpn, KPC-2)): >128 | Drug concentration ([1]; strain 18-W09-047 (kpn, KPC-2)): >128 | Drug concentration ([1]; strain 18-W09-049 (kpn, KPC-2)): >128 | Drug concentration ([1]; strain 18-W09-050 (kpn, KPC-2)): >128 | Drug concentration ([1]; strain 18-W09-051 (kpn, KPC-2)): >128 | Drug concentration ([1]; strain 18-W13-043 (kpn, KPC-2)): >128 | Drug concentration ([1]; strain 18-W13-044 (kpn, KPC-2)): >128 | Drug concentration ([1]; strain 18-W13-045 (kpn, KPC-2)): >128 | Drug concentration ([1]; strain 18-W13-046 (kpn, KPC-2)): >128 | Drug concentration ([1]; strain 18-W13-047 (kpn, KPC-2)): >128 | antibacterial activity [1]: no antibacterial activity | MIC range [2]: >128 mg/L | MIC50 [2]: ≥ 128 µg/mL | MIC90 [2]: ≥ 128 µg/mL | Cumulative inhibition rate (%) [2]: 100% | Cumulative number of strains [2]: 12 | Number of strains [2]: 12 | Mode [2]: >128 mg/L | Drug concentration ([2]; strain 20-W4-001 (kpn, OXA-232)): >128 | Drug concentration ([2]; strain 20-W4-002 (kpn, OXA-232)): >128 | Drug concentration ([2]; strain 20-W4-003 (kpn, OXA-232)): >128 | Drug concentration ([2]; strain 20-W4-004 (kpn, OXA-232)): >128 | Drug concentration ([2]; strain 20-W4-005 (kpn, OXA-232)): >128 | Drug concentration ([2]; strain 20-W4-007 (kpn, OXA-232)): >128 | Drug concentration ([2]; strain 20-W4-008 (kpn, OXA-232)): >128 | Drug concentration ([2]; strain 20-W4-009 (kpn, OXA-232)): >128 | Drug concentration ([2]; strain 20-W4-010 (kpn, OXA-232)): >128 | Drug concentration ([2]; strain 20-W4-011 (kpn, OXA-232)): >128 | Drug concentration ([2]; strain 20-W4-012 (kpn, OXA-232)): >128 | Drug concentration ([2]; strain 20-W4-013 (kpn, OXA-232)): >128 | antibacterial activity [2]: no antibacterial activity

C[n+]1ccn(C[C@@]2(C)[C@H](C(=O)[O-])N3C(=O)C[C@H]3S2(=O)=O)n1 [Group E2, (2S,3S,5R)-3-methyl-3-[(3-methyltriazol-3-ium-1-yl)methyl]-4,4,7-trioxo-4-amino-6-thia-1-azabicyclo[3.2.0]heptane-2-carboxylate]
MIC range [1]: >128 mg/L | MIC50 [1, 3]: ≥ 128 µg/mL | MIC90 [1, 4]: ≥ 128 µg/mL | Cumulative inhibition rate (%) [1]: 100% | Cumulative number of strains [1]: 12 | Number of strains [1]: 12 | Mode [1]: >128 mg/L | antibacterial activity [1]: no antibacterial activity | MIC range [2]: >128 mg/L | MIC50 [2]: ≥ 128 µg/mL | MIC90 [2]: ≥ 128 µg/mL | Cumulative inhibition rate (%) [2]: 100% | Cumulative number of strains [2]: 12 | Number of strains [2]: 12 | Mode [2]: >128 mg/L | antibacterial activity [2]: no antibacterial activity
